Reference: PubChem BioAssay AID588490 (The Scripps Research Institute Molecular Screening Center, 2011)

Experiments:
Experiment in all cases: PubChem AID 588490
[1] = target: Protein-arginine deiminase type-2 (Homo sapiens) (UniProt Q9Y2J8); conditions: recombinant PAD1-4, BAEE citrulline colorimetric absorbance; PAD2
[2] = target: Protein-arginine deiminase type-1 (Homo sapiens) (UniProt Q9ULC6); conditions: recombinant PAD1-4, BAEE citrulline colorimetric absorbance; PAD1
[3] = target: Protein-arginine deiminase type-3 (Homo sapiens) (UniProt Q9ULW8); conditions: recombinant PAD1-4, BAEE citrulline colorimetric absorbance; PAD3
Sequence of Protein-arginine deiminase type-3 (Homo sapiens) (Q9ULW8 whole entry, looked up): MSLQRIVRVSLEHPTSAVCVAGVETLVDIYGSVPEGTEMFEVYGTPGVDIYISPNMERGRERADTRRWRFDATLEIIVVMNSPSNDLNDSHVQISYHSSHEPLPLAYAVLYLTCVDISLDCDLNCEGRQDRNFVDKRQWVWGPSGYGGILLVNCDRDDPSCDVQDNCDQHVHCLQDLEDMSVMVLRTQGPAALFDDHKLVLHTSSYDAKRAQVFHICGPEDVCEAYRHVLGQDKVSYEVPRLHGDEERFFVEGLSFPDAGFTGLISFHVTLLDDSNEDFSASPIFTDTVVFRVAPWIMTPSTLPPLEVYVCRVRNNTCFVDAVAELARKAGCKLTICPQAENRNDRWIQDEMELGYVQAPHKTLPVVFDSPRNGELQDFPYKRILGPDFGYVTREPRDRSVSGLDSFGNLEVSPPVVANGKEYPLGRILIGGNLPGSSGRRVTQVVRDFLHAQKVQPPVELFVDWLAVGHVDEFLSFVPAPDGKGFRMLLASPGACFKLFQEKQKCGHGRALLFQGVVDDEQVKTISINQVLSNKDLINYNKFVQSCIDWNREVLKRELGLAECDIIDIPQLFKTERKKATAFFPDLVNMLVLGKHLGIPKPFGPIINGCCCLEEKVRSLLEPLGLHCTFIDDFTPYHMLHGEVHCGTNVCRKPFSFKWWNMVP

Sequence of Protein-arginine deiminase type-2 (Homo sapiens) (Q9Y2J8 whole entry, looked up): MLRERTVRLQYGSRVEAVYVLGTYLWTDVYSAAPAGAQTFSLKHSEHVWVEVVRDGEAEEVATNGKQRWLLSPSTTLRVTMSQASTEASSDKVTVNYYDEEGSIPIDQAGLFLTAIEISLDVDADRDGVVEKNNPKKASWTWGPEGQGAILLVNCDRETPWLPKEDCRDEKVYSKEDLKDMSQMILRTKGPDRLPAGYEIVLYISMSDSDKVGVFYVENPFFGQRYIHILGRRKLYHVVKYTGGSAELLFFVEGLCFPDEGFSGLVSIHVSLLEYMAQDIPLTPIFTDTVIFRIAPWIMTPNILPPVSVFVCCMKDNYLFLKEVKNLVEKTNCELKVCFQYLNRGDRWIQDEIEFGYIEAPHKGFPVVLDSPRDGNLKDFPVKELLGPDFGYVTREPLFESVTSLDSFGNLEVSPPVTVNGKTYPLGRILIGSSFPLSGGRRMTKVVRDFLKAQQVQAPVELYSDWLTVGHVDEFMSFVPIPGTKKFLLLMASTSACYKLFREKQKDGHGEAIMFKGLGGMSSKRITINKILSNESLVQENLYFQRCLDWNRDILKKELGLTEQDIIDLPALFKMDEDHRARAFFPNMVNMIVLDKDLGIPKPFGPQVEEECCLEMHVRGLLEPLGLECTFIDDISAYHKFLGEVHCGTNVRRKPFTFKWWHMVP
Sequence of Protein-arginine deiminase type-1 (Homo sapiens) (Q9ULC6 whole entry, looked up): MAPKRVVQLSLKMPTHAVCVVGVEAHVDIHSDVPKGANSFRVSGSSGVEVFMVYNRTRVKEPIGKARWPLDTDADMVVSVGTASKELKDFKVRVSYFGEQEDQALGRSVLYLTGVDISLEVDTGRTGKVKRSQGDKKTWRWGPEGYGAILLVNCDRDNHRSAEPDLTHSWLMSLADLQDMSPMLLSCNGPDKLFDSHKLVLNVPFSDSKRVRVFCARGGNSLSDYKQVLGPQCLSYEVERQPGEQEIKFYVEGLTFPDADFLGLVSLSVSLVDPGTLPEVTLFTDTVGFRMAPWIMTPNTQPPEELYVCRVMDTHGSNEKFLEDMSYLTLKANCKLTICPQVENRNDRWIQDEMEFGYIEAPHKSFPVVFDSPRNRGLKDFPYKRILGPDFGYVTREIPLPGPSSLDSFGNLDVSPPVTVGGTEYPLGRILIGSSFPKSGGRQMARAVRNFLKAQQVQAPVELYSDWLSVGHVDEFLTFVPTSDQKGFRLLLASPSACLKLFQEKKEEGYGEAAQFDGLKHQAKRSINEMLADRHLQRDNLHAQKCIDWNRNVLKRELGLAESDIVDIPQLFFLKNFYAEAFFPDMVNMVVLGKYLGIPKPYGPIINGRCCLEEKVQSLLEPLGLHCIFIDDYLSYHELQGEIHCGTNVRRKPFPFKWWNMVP

IC50 [1]: 0.2 µM
IC50 [2]: 0.07 µM
IC50 [3]: 0.71 µM
SMILES: NC1=CC(=O)c2ccc(-c3cccc(C(=O)O)n3)nc2C1=O
